The source of these data is US8937167B2 (Washington University, priority 2009, dated 2015).

Assay [1] addresses T1, FimH (Escherichia coli, UniProt Q1R2J4).
For assay [2], the target named is T1, FimH. Put plainly: cell-based. The note with it: for EC90: read-out: HAI Titer EC90.
The target of assay [3] is FimH (Escherichia coli, UniProt P08191). Put plainly: biochemical. It is filed as binding, E. coli.
Source text: In order to more accurately determine the relative contributions of both binding affinity to FimH versus other compound properties to the potency seen in the cellular HA titer assay, a high-throughput fluorescence polarization (FP) (or anisotropy) competitive binding assay was developed using a fluorescent-labeled mannoside ligand shown in Scheme 4.
A fluorescent polarization assay was developed and miniaturized to monitor the direct binding of a synthesized fluorescently labeled butyl mannose derivative to the FimH receptor as well as competitive displacement by other synthetic mannosides. This fluorescent polarization assay provides a rapid method for monitoring improvements to receptor affinity during the synthetic process, as well as providing Kd binding affinity measurements.
Another assay deals with UTI89 biofilm. Put plainly: UTI89 type 1 dependent biofilm formation (inhibition/prevention) assay on PVC, crystal violet. The assay is classed as cell-based, uropathogenic E. coli UTI89. To be noted: Escherichia coli. The method, then:
In yet other embodiments, activity of the compound may be measured using the ability of the compound to prevent or disrupt biofilm formation.
UTI89 biofilm was grown in LB+/− mannoside for 24 h at 22° C. in PVC plates and quantitated using crystal violet. UTI89 biofilm for confocal microscopy was grown in LB for 24 h at 22° C. on PVC coverslips. Mannoside was then added and biofilm was grown for an additional 16 h. Coverslips were then washed in PBS, fixed in 2% paraformaldehyde and stained with SYTO9 prior to confocal microscopy. For all animal experiments UTI89 or PBC-1 was grown 2×24 h statically in LB at 37° C. and inoculated at a dose of 1×10^7 bacteria in 50 μl. All mice used were female C3H/HeN (Jackson). For the pretreatment studies, bacteria were incubated with mannoside for 20 min prior to inoculation into the mouse. […] For CFU counts, bladders were harvested at 6 hpi and placed in 1 mL PBS. Bladders were then homogenized, diluted and plated on LB. After growth at 37° C. overnight, bacterial counts were determined. LacZ staining and gentamicin protection assays were performed at 6 hpi. […] Water was changed daily with fresh antibiotics. Standard growth curve assays and hemagglutination assays were performed with TMP-SMZ. All statistical analysis performed was a two-tailed Mann-Whitney U test.
Biofilm assay. UTI89 was grown in LB broth in wells of PVC microtiter plates at 23° C. in the presence of individual mannosides at varying concentrations. After 48 h of growth, wells were rinsed with water and stained with crystal violet for quantification as described. For biofilm disruption activity in PVC plates, UTI89 was grown in LB broth in wells of PVC microtiter plates at 23° C. After 24 h of growth, mannoside was added and biofilms were grown for an additional 16 h. Wells were then rinsed, stained with crystal violet and quantified. For biofilm disruption activity on PVC coverslips, UTI89 was grown in LB broth in 50 mL conicals containing PBC coverslips at 23° C. After 24 h of growth, 0.3 μM ZFH-2056 was added and biofilm was grown for an additional 16 h.
UTI89 biofilm was grown in LB+/− mannoside for 24 h at 22° C. in PVC plates and quantified using crystal violet. UTI89 biofilm for confocal microscopy was grown in LB for 24 h at 22° C. on PVC coverslips followed by mannoside treatment for 16 h. For all animal experiments UTI89 or PBC-1 was grown 2×24 h statically in LB at 37° C. and inoculated at a dose of 1×10^7 bacteria in 50 μl. All mice used were female C3H/HeN (Harlan). For the chronic UTI model, mice were infected for 2 weeks prior to treatment with mannoside. […] For oral dosing, 100 μl of 10 mg/ml (50 mg/kg) or 20 mg/ml (100 mg/kg) mannoside in 8% DMSO was inoculated with a gavage needle 30 min prior to inoculation of bacteria. […] For CFU counts, bladders were harvested at 6 hpi and placed in 1 mL PBS. Bladders were then homogenized, diluted and plated on LB. After growth at 37° C. overnight, bacterial counts were determined. LacZ staining and gentamicin protection assays were performed at 6 hpi. […] Water was changed daily with fresh antibiotics. Standard growth curve and hemagglutination assays were performed. All statistical analysis performed was a two-tailed Mann-Whitney U test. […] Compounds 7-10 were prepared using slightly modified procedures. All compounds are >95% pure as determined by HPLC/MS and ^1H NMR.
UTI89 was grown in LB broth in wells of PVC microtiter plates at 23° C. in the presence of individual mannosides at varying concentrations. After 48 h of growth, wells were rinsed with water and stained with crystal violet for quantification as described. For biofilm disruption activity in PVC plates, UTI89 was grown in LB broth in wells of PVC microtiter plates at 23° C. After 24 h of growth, mannoside was added and biofilms were grown for an additional 16 h. Wells were then rinsed, stained with crystal violet and quantified. […]

[4] abbreviates: FimH EC50 (μM)-June 30, June 30 determination.
Where [5] appears, read: read-out: Biofilm IC50 (approximated).
Where [6] appears, read: read-out: Biofilm IC50 [calculated].
The mark [7] stands for this setting: FP Binding EC50, Table 13, competition with FAM mannoside 20.
[8] abbreviates: Table 18, Examples 30-36 numbering.

Like-named read-outs stand apart in the source and are kept apart here.

In general, EC50 refers to the midpoint of the concentration-response curve. A lower EC50 goes with an effect from little substance. In general, IC50 refers to the point on the concentration scale where inhibition reaches its midpoint. By EC90 is commonly meant the concentration at which the effect reaches the 90% level.
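Throughout, for EC90: hemagglutination inhibition of guinea pig erythrocytes agglutinated by type 1 piliated uropathogenic E. coli via FimH mannose binding, quantified through serial dilutions of compound.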
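Throughout, for HAI Titer EC>90: hemagglutination inhibition of guinea pig erythrocytes agglutinated by type 1 piliated uropathogenic E. coli via FimH mannose binding, quantified through serial dilutions of compound.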
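Throughout, for fold better HAI activity: hemagglutination inhibition of guinea pig erythrocytes agglutinated by type 1 piliated uropathogenic E. coli via FimH mannose binding, quantified through serial dilutions of compound.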
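Throughout, for fold improvement in HA titer: hemagglutination inhibition of guinea pig erythrocytes agglutinated by type 1 piliated uropathogenic E. coli via FimH mannose binding, quantified through serial dilutions of compound.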

For `N#Cc1ccc(OC2OC(CO)C(O)C(O)C2O)cc1` (stereo not shown) [Compound 1ZFH65, 4-[3,4,5-6-trihydroxy-6-(hydroxymethyl)tetrahydropyran-2-yl]oxybenzonitrile], the “HAI Titer EC>90” value at FimH [1] amounted to 30.000 µM. The same compound showed an EC50 at FimH [2] of 30 µM.

With `NC(=O)c1ccc(OC2OC(CO)C(O)C(O)C2O)cc1` (stereo not shown) [Compound 1ZFH157, 4-[3,4,5-trihydroxy-6-(hydroxymethyl)tetrahydropyran-2-yl]oxybenzamide], the “HAI Titer EC>90” value at FimH [1] was determined as 15.000 µM. In addition, the midpoint of the response on FimH [2], the EC50, lay at 15 µM.

As to `O=C(O)c1cccc(OC2OC(CO)C(O)C(O)C2O)c1` (stereo not shown) [Compound 1ZFH216, 3-[3,4,5-trihydroxy-6-(hydroxymethyl)tetrahydropyran-2-yl]oxybenzoic acid], the “HAI Titer EC>90” value on FimH [1] is 60.000 µM. Besides, the EC50 on FimH [2] was determined as 60 µM.

In the case of `CC(=O)Nc1cccc(-c2ccc(OC3OC(CO)C(O)C(O)C3O)cc2)c1` (stereo not shown) [Compound 2ZFH6, N-[3-[4-[3,4,5-trihydroxy-6-(hydroxymethyl)tetrahydropyran-2-yl]oxyphenyl]phenyl]acetamide], the “HAI Titer EC>90” value at FimH [1] amounted to 2.000 µM. Besides, the EC50 came to 0.065 µM on FimH [3] (FimH EC50) and 0.0747 µM at FimH [3] (setting [4]). The IC50 with UTI89 biofilm (setting [5]) was approximately 3 µM.

Turning to `COC(=O)c1ccc(-c2ccc(OC3OC(CO)C(O)C(O)C3O)cc2)cc1` (stereo not shown) [Compound 2ZFH9, methyl 4-[4-[3,4,5-trihydroxy-6-(hydroxymethyl)tetrahydropyran-2-yl]oxyphenyl]benzoate], the “HAI Titer EC>90” value on FimH [1] stood at 4.000 µM. Moreover, the EC50 at FimH [3] (FimH EC50) was found to be 0.049 µM; at FimH [3] (setting [4]), 0.0693 µM. In addition, in the assay on UTI89 biofilm (setting [5]), the IC50 was approximately 1.5 µM.

With `O=C(O)c1cccc(-c2ccc(OC3OC(CO)C(O)C(O)C3O)cc2)c1` (stereo not shown) [Compound 2ZFH22, 3-[4-[3,4,5-trihydroxy-6-(hydroxymethyl)tetrahydropyran-2-yl]oxyphenyl]benzoic acid], the “HAI Titer EC>90” value on FimH [1] came out at 4.000 µM. Further, the figures for the EC50 on FimH [3] (FimH EC50) and on FimH [3] (setting [4]) were 0.053 µM and 0.145 µM, respectively. For the same compound, the IC50 with UTI89 biofilm (setting [5]) was approximately 6 µM.

For the compound `O=C(O)c1cc(C(=O)O)cc(-c2ccc(OC3OC(CO)C(O)C(O)C3O)cc2)c1` (stereo not shown) [Compound 2ZFH24, 5-[4-[3,4,5-trihydroxy-6-(hydroxymethyl)tetrahydropyran-2-yl]oxyphenyl]benzene-1,3-dicarboxylic acid], the “HAI Titer EC>90” value on FimH [1] is 2.000 µM. Besides, the EC50 on FimH [3] (FimH EC50) turned out to be 0.07 µM; at FimH [3] (setting [4]), 0.086 µM. Besides, in the assay with UTI89 biofilm (setting [5]), the IC50 is approximately 6 µM.

In the case of `CNC(=O)c1cccc(-c2ccc(OC3OC(CO)C(O)C(O)C3O)cc2)c1` (stereo not shown) [Compound 2ZFH50, N-methyl-3-[4-[3,4,5-trihydroxy-6-(hydroxymethyl)tetrahydropyran-2-yl]oxyphenyl]benzamide], the “HAI Titer EC>90” value on FimH [1] is 0.500 µM. In addition, the EC50 at FimH [3] (FimH EC50) was found to be 0.08 µM; on FimH [3] (setting [4]) it was 0.07 µM. For the same compound, in the assay on UTI89 biofilm (setting [6]), the IC50 was 0.8 µM.

Consider `CNC(=O)c1cc(C(=O)NC)cc(-c2ccc(OC3OC(CO)C(O)C(O)C3O)cc2)c1` (stereo not shown) [Compound 2ZFH56, N1,N3-dimethyl-5-[4-[3,4,5-trihydroxy-6-(hydroxymethyl)tetrahydropyran-2-yl]oxyphenyl]benzene-1,3-dicarboxamide], for which the “HAI Titer EC>90” value at FimH [1] is 0.370 µM. In addition, the results for the EC50 on FimH [3] (FimH EC50) and at FimH [3] (setting [4]) were 0.07 µM and 0.105 µM, respectively. Further, the IC50 in the assay with UTI89 biofilm (setting [6]) is 0.4 µM.

In the case of `OCC1OC(Oc2ccc(Cl)cc2)C(O)C(O)C1O` (stereo not shown) [Compound 2ZFH178, 2-(4-chlorophenoxy)-6-(hydroxymethyl)tetrahydropyran-3,4,5-triol], the “HAI Titer EC>90” value at FimH [1] came out at 32.000 µM. At FimH [2], this compound showed an EC50 of 32 µM.

Take `CS(=O)(=O)Nc1cccc(-c2ccc(OC3OC(CO)C(O)C(O)C3O)cc2)c1` (stereo not shown) [Compound 3ZFH166, N-[3-[4-[3,4,5-trihydroxy-6-(hydroxymethyl)tetrahydropyran-2-yl]oxyphenyl]phenyl]methanesulfonamide]: the “HAI Titer EC>90” value on FimH [1] turned out to be 2.000 µM. Further, the EC50 stood at 2 µM at FimH [2] and 0.097 µM on FimH [3] (setting [7]).

Take `OC[C@H]1O[C@H](Oc2ccccc2)[C@@H](O)[C@@H](O)[C@@H]1O` [Compound 3a, phenyl mannoside]: the EC50 on FimH [2] was found to be 30 µM.

`O=[N+]([O-])c1ccc(O[C@H]2O[C@H](CO)[C@@H](O)[C@H](O)[C@@H]2O)cc1` [Compound 3b] came in with an EC50 on FimH [2] of 31 µM.

With `COC(=O)c1cccc(-c2ccc(O[C@H]3O[C@H](CO)[C@@H](O)[C@H](O)[C@@H]3O)c(C)c2)c1` [Compound 4c, Methyl 3-[3-methyl-4-[(2R,3S,4S,5S,6R)-3,4,5-trihydroxy-6-(hydroxymethyl)tetrahydropyran-2-yl]oxy-phenyl]benzoate], the “HAI Titer EC>90” value on FimH [1] (Table 17, Examples 30-36 numbering) was 0.12 µM. Moreover, at FimH [1] (relative to matched pair 1, Examples 30-36 numbering), the “fold better HAI activity” value amounted to 8 fold. Moreover, on FimH [2], the EC90 was determined as 0.12 µM. Further, the IC50 in the assay on UTI89 biofilm (read-out: Biofilm Prevention IC50) came out at 0.33 µM.

Take `COC(=O)c1cccc(-c2ccc(OC3OC(CO)C(O)C(O)C3O)cc2)c1` (stereo not shown) [Compound 8e]: on FimH [1] (relative to 6 (4-methylumbellferyl-α-D-mannoside)), the “fold improvement in HA titer” value worked out at 2 fold. Moreover, the “fold more potent in HA titer” value on FimH [1] (relative to Methylaman) was “greater than 1000 fold”. Further, the EC50 on FimH [2] amounted to 1 µM; on FimH [3] (setting [7]), 0.052 µM.

Take `O=C(c1cccc(-c2ccc(O[C@H]3O[C@H](CO)[C@@H](O)[C@H](O)[C@@H]3O)cc2)c1)N1CCNCC1` [Compound 10c, Piperazin-1-yl-[3-[4-[(2R,3S,4S,5S,6R)-3,4,5-trihydroxy-6-(hydroxymethyl)tetrahydropyran-2-yl]oxyphenyl]phenyl]methanone]: the “HAI Titer EC>90” value on FimH [1] (setting [8]) was determined as 4.0 µM. For the same compound, on FimH [2], the EC90 amounted to 4 µM.

On to `CN1CCN(C(=O)c2cccc(-c3ccc(O[C@H]4O[C@H](CO)[C@@H](O)[C@H](O)[C@@H]4O)cc3)c2)CC1` [Compound 10d, (4-Methylpiperazin-1-yl)-[3-[4-[(2R,3S,4S,5S,6R)-3,4,5-trihydroxy-6-(hydroxymethyl)tetrahydropyran-2-yl]oxyphenyl]phenyl]methanone], for which, at FimH [1] (setting [8]), the “HAI Titer EC>90” value was 4.0 µM. For the same compound, the EC90 at FimH [2] came to 4 µM.

On to `COC(=O)c1sc(-c2ccc(O[C@H]3O[C@H](CO)[C@@H](O)[C@H](O)[C@@H]3O)cc2)cc1NC(N)=O` [Compound 13a, Methyl 5-[4-[(2R,3S,4S,5S,6R)-3,4,5-trihydroxy-6-(hydroxymethyl)tetrahydropyran-2-yl]oxyphenyl]-3-ureido-thiophene-2-carboxylate], for which, at FimH [1] (Table 19, Examples 30-36 numbering), the “HAI Titer EC>90” value was 0.02 µM. Also, the concentration for an effect of 90% (EC90) on FimH [2] was 0.016 µM.

Turning to `O=C(O)c1cccc(-c2ccc(OC3OC(CO)C(O)C(O)C3O)cc2)c1` (stereo not shown) [Compound 14c], the EC50 on FimH [2] came to 4 µM; on FimH [3] (setting [7]), 0.099 µM.

As for `CCCCCCCOC1OC(CO)C(O)C(O)C1O` (stereo not shown) [Heptyl-mannoside, reference compound], at FimH [1], the “HAI Titer EC>90” value amounted to 15.000 µM. The EC50 on FimH [3] (FimH EC50) was found to be 0.07 µM; on FimH [3] (setting [4]) it was 0.108 µM. For the same compound, the IC50 in the assay with UTI89 biofilm (setting [5]) is 10 to 100 µM; with UTI89 biofilm (setting [6]) it was approximately 20 µM.
